# Results from patent publication US10357479B2, “Angiotensin II receptor antagonist for the prevention or treatment of systemic diseases in cats” (priority 2006, dated 2019).
# Where “and” joins values, the source holds several entries; their conditions need not be identical. Identical values can stand only once. Entries after “also recorded” stand apart in the source; their conditions may differ.
# Experiments:
# [1] = tested on: angiotensin II receptor 1 (AT-1); assay: Angiotensin II induced increase in diastolic blood pressure in laboratory cats after oral dosing; type: in vivo; details: approximately 24 hours after the last oral dosing, target dose vs Placebo
# [2] = Pharmacokinetics and absolute bioavailability in plasma after single oral or intravenous administration (Example 1); details: for AUC(0-inf) / half-life / t max / V/f or V / t ½ / AUC 0 → ∞: single dose 1 mg/kg, mean; for half-life: t ½
# Procedure: Four clinically healthy male and female domestic short hair cats (HsdCpb: CADS) with a body weight range of 2.6-4.2 kg were used in this study. The animals were randomly allocated to 2 groups, 2 animals per group.
# Blood samples were drawn at 0 h (i.e. prior to treatment), 5 (after i. v. injection only), 15, 30 and 60 min as well as 2, 4, 8, 24, 72 and 96 h after each treatment. Clinical observations were also conducted at these time points. Plasma samples were sent to the analytical laboratory and analysed there using a validated method. The plasma levels measured in each animal were subjected to various pharmacokinetic calculations.
# [3] = Safety after repeated oral administration over four weeks (Example 3); type: in vivo, cats
# Procedure: The animals were allocated to 3 groups, 4 animals per group. […] The bottles with the test/control article looked identical with the exception of the animal no. in order to achieve blinding.
# Blood samples for haematology and clinical chemistry were collected from the animals on days-1 (i.e. prior to the first treatment) and again on days 3, 7, 14, 28. Body weights were measured weekly and electrocardiography recording were made on days-1, 14, 21 and 28. A detailed physical examination including determination of rectal temperature and respiratory rate was carried out on days-1, 7, 14, 22 and 28. Systolic blood pressure (once daily) and heart rate (twice daily) were determined five days per week beginning prior to treatment until necropsy. The palatability of the administered article was assessed at various time points throughout treatment using a scoring system. On day 28 of the study, all animals were subjected to necropsy and stomach and kidneys were examined histopathologically. Relevant parameters were analysed using appropriate statistical procedures.
# [4] = human patients, 160 mg daily; cited from earlier work
# [5] = tested on: angiotensin II receptor 1 (AT-1); assay: Escalating intravenous dose: blood pressure response of anaesthetised cats after angiotensin II (Example 2); type: in vivo
# Procedure: Four clinically healthy adult male and female domestic short hair cats (HsdCpb: CADS) with a body weight range of 2.5-3.5 kg were used in this study. The animals were anaesthetised with sodium pentobarbital and anaesthesia was sustained by continuous infusion of diluted anaesthetic. A catheter was inserted into a carotid artery and connected to a pressure transducer for registration of the arterial pressure. […] The systolic and diastolic blood pressure [mmHg] in the carotid artery were recorded and analysed at discrete intervals as described below.
# At first, the diastolic blood pressure was registered 6 times every 5 minutes. The mean of these 6 measurements were set as the baseline blood pressure. Then two bolus injections of A2 were administered at a dose of 0.1 μg/kg in an interval of 10 min. The maximum increase in diastolic blood pressure obtained from the second A2-bolus relative to the baseline blood pressure was taken as the control angiotensin II-blood pressure response (i.e. reference value).
# Thirty minutes later the diastolic blood pressure was recorded, immediately followed by bolus injection of A2 at a dose of 0.1 μg/kg and the maximum increase in diastolic blood pressure was obtained. This procedure was to be repeated accordingly until the intended endpoint of the experiment (i.e. an A2-pressure response ≤10% of the control A2-pressure response corresponding to ≥90% inhibition) was reached. […] At the end of the experiment, the anaesthetised animals were euthanized with an overdose of sodium pentobarbital.
# [6] = both, domestic short hair (HsdCpb: CADS), plasma, po, 1 mg/kg
# [7] = oral once daily days 0 to 27, 1 and 3 mg/kg
compound,measurement,setting,value
"CCCc1nc2c(C)cc(-c3nc4ccccc4n3C)cc2n1Cc1ccc(-c2ccccc2C(=O)O)cc1 [telmisartan, 4′-[2-n-propyl-4-methyl-6-(1-methylbenzimidazol-2-yl)-benzimidazol-1-ylmethyl]-biphenyl-2-carboxylic acid]",diastolic blood pressure responses to increasing intravenous doses of Angiotensin II,[1],significantly reduced
same,plasma concentrations at 24 h,"[2]; 24 h after both routes, orally and intravenously",No quantifiable plasma concentrations
same,time until which mean plasma concentrations increased,[2]; after oral administration,15 to 30 min
same,bioavailability,"[2]; both, domestic short hair (HsdCpb: CADS), cat, plasma, po, 1 mg/kg, absolute bioavailability after oral administration, oral 1 mg/kg",33%
same,MRT,"[2]; both, domestic short hair (HsdCpb: CADS), plasma, iv, 1 mg/kg",0.789 h
same,AUC(0-inf),"[2]; both, domestic short hair (HsdCpb: CADS), plasma, iv, 1 mg/kg, i.v., first AUC line (r5)",385 ng·h/mL
same,AUC(0-inf),"[2]; both, domestic short hair (HsdCpb: CADS), plasma, iv, 1 mg/kg, i.v., second AUC line (r7)",376 ng·h/mL
same,half-life,"[2]; both, domestic short hair (HsdCpb: CADS), plasma, iv, 1 mg/kg, i.v.",135 min
same,CL/F,[2]; [6],172 mL/min/kg
same,Cmax,[2]; [6],138 ng/mL
same,MRT,[2]; [6],1.97 h
same,AUC(0-inf),"[2]; both, domestic short hair (HsdCpb: CADS), plasma, po, 1 mg/kg, oral, first AUC line (r5)",150 ng·h/mL
same,AUC(0-inf),"[2]; both, domestic short hair (HsdCpb: CADS), plasma, po, 1 mg/kg, oral, second AUC line (r7)",139 ng·h/mL
same,bioavailability,"[2]; both, domestic short hair (HsdCpb: CADS), plasma, po, 1 mg/kg, absolute bioavailability after oral administration, oral 1 mg/kg",33.6%
same,bioavailability,"[2]; both, domestic short hair (HsdCpb: CADS), plasma, po, 1 mg/kg, absolute bioavailability, point estimate, for AUC 0→t, oral vs i.v. 1 mg/kg",31.6%
same,bioavailability,"[2]; both, domestic short hair (HsdCpb: CADS), plasma, po, 1 mg/kg, absolute bioavailability, point estimate, for AUC 0→∞, oral vs i.v. 1 mg/kg",33.6%
same,t max,"[2]; both, domestic short hair (HsdCpb: CADS), plasma, po, 1 mg/kg, t max, oral",26.4 min
same,half-life,"[2]; both, domestic short hair (HsdCpb: CADS), plasma, po, 1 mg/kg, oral",130 min
same,bioavailability,"[2]; domestic short hair (HsdCpb: CADS), plasma, po, 1 mg/kg, bioavailability, individual data, animal no. 101, for AUC 0→∞",11.6%
same,bioavailability,"[2]; domestic short hair (HsdCpb: CADS), plasma, po, 1 mg/kg, bioavailability, individual data, the other animals, for AUC 0→∞",38.7 to 58.2%
same,clinical signs,"[2]; entire course of the study, single oral or i.v. 1 mg/kg",No specific clinical signs
same,V/f or V,"[2]; i.v., 1 mg/kg",8.8 L/kg and 8.856 L/kg
same,t ½,"[2]; i.v., 1 mg/kg",2.252 h
same,AUC 0 → ∞,"[2]; i.v., first AUC line (r5), 1 mg/kg",384.751 ng·h/mL
same,tolerability,"[2]; in vivo, 1 mg/kg",well tolerated
same,V/f or V,"[2]; oral, 1 mg/kg",20.4 L/kg and 20.453 L/kg
same,t max,"[2]; oral, 1 mg/kg",26.3 min
same,t ½,"[2]; oral, 1 mg/kg",2.169 h
same,AUC 0 → ∞,"[2]; oral, first AUC line (r5), 1 mg/kg",150.426 ng·h/mL
same,histopathology of stomach and kidneys,[3]; day 28,no histopathological findings considered to be associated with the treatment
same,necropsy findings,[3]; day 28,No animal showed any specific finding
same,"systolic blood pressure, changes from baseline vs controls",[3]; groups II (1 mg/kg) and III (3 mg/kg),did not reveal significant differences
same,systolic blood pressure vs control group I,"[3]; groups II (1 mg/kg) and III (3 mg/kg), single occasions after initiation of treatment",significantly lower
same,"systolic blood pressure, course of the mean values over time","[3]; groups II and III vs group I, from day 20 onwards / towards the end of the study",tendency of a slight reduction
same,"body weights, rectal temperature, respiratory and heart rates",[3]; [7],No significant differences
same,clinical findings,[3]; [7],No clinical findings clearly attributable to the treatment
same,urinalysis,[3]; [7],not provide evidence of a treatment effect
same,physical and ECG examinations,"[3]; oral once daily days 0 to 27, 1 and 3 mg/kg, all time points",did not reveal treatment-related findings
same,haematological and clinical chemistry parameters including differential leukocyte count,"[3]; oral once daily days 0 to 27, 1 and 3 mg/kg, vs concurrent controls",No treatment-related differences
same,plasma level (Cmax±SD),[4],about 2800±2400 ng/ml
same,effect of further dose escalation,[5]; all 4 animals,did not produce markedly higher effects; also recorded: did not produce an appropriate dose response relationship
same,maximal inhibition of the blood pressure increase relative to the control angiotensin II-blood pressure response,"[5]; animal no. 101, reached at cumulative i.v. dose of 0.05 mg/kg",50%
same,inhibition of the angiotensin II diastolic blood pressure response,"[5]; animal no. 102, after the 1st i.v. dose of 0.04 mg/kg",73%
same,inhibition of the angiotensin II diastolic blood pressure response,"[5]; animal no. 151, cumulative i.v. dose of 0.04 mg/kg",73%
same,inhibition of the angiotensin II diastolic blood pressure response,"[5]; animal no. 152, after the 1st i.v. dose of 0.02 mg/kg",73%
same,maximal inhibition of the blood pressure increase relative to the control angiotensin II-blood pressure response,"[5]; animal nos. 102, 151, 152, final cumulative i.v. dose 0.34-0.4 mg/kg",80-95%
same,inhibition of the angiotensin II diastolic blood pressure response,"[5]; cumulative i.v. dose of 0.04 mg/kg, 3 of 4 animals",73%
same,inhibition of the blood pressure response,"[5]; doses of less than 0.05 mg per kg body weight, majority of the tested cats",about 75%
same,effect on diastolic blood pressure increase after angiotensin II,"[5]; escalating intravenous doses, anaesthetised cats",led to an inhibition of the diastolic blood pressure increase
same,endpoint of a 90% inhibition of the A2-pressure response,[5]; several consecutive escalating i.v. doses,could not be reached in 3 of 4 animals
